According to US12252524B2, “GIP/GLP1 co-agonist compounds” (Eli Lilly and Company, priority 2018, dated 2025):
Numbered stars: 1 amine (or outer) side, 2 acyl side, 3 side chain; on linkers, the order of the positions; unused ones are H or OH. Square brackets hold non-standard residues; d marks the D form. Side chains are listed from the residue outwards. Peptide text beside a SMILES is read from it. * marks the point of attachment. C20 diacid = O=C(O)CCCCCCCCCCCCCCCCCCC(=O)*; γGlu = O=C(O)[C@H](CCC(=O)[*:2])N[*:1]; AEEA = NCCOCCOCC(=O)O; Aib = CC(C)(N)C(=O)O

How the values were obtained:
[1] = molecular target: T1, human Gcg receptor (Homo sapiens, UniProt P47871); experiment: [125I]-Glucagon binding (SPA), human Gcg receptor; settings: read-out: hGLcgR Ki, nM (SEM, n)
T1 construct: expressed in transfected cells; crude membranes
Method: (§1) Two methods are used for the preparation of crude cell membranes.
(§2) Method 1: Frozen cell pellets are lysed on ice in hypotonic buffer containing 50 mM Tris HCl, pH 7.5, and Roche Complete™ Protease Inhibitors with EDTA. The cell suspension is disrupted using a glass Potter-Elvehjem homogenizer fitted with a Teflon® pestle for 25 strokes. The homogenate is centrifuged at 4° C. at 1100×g for 10 minutes. The supernatant is collected and stored on ice while the pellets are resuspended in homogenization buffer and rehomogenized as described above. The homogenate is centrifuged at 1100×g for 10 minutes. The second supernatant is combined with the first supernatant and centrifuged at 35000×g for 1 hour at 4° C. The resulting membrane pellet is resuspended in homogenization buffer containing protease inhibitors at approximately 1 to 3 mg/mL, quick frozen in liquid nitrogen and stored as aliquots in a−80° C. freezer until use.
(§3) Method 2: Frozen cell pellets are lysed on ice in hypotonic buffer containing 50 mM Tris HCl, pH 7.5, 1 mM MgCl2, Roche Complete™ EDTA-free Protease Inhibitors and 25 units/ml DNAse I (Invitrogen). The cell suspension is disrupted using a glass Potter-Elvehjem homogenizer fitted with a Teflon® pestle for 20 to 25 strokes. The homogenate is centrifuged at 4° C. at 1800×g for 15 minutes. The supernatant is collected and stored on ice while the pellets are resuspended in homogenization buffer (without DNAse I) and rehomogenized as described above. The homogenate is centrifuged at 1800×g for 15 minutes. The second supernatant is combined with the first supernatant and centrifuged an additional time at 1800×g for 15 minutes. The overall supernatant is then centrifuged at 25000×g for 30 minutes at 4° C. The resulting membrane pellet is resuspended in homogenization buffer (without DNAse I) containing protease inhibitors at approximately 1 to 3 mg/mL and stored as aliquots in a−80° C. freezer until use.
The human Gcg receptor binding assays are performed using a Scintillation Proximity Assay (SPA) format with wheat germ agglutinin (WGA) beads (Perkin Elmer). The binding buffer contains 25 mM 4-(2-hydroxyethyl)-1-piperazineethanesulfonic acid (HEPES), pH 7.4, 2.5 mM CaCl2, 1 mM MgCl2, 0.1% (w/v) bacitracin (Research Products), 0.003% (w/v) Polyoxyethylenesorbitan monolaurate (TWEEN©-20), and Roche Complete™ Protease Inhibitors without EDTA. […] Plates are sealed and mixed on a plate shaker (setting 6) for 1 minute and read with a PerkinElmer Trilux MicroBeta© scintillation counter after 12 hours of incubation/settling time at room temperature.
(§4) Data are analyzed using four-parameter (curve maximum, curve minimum, IC50, Hill slope) nonlinear regression routines (Genedata Screener, version 12.0.4, Genedata AG, Basal, Switzerland). […] Values for Ki are reported as the geometric mean, with error expressed as the standard error of the mean (SEM) and n is equal to the number of independent replicates (determined in assays performed on different days). […] The Ki Ratio is a rapid indication of the apparent affinity of a peptide compared to the native control peptide. […] SEM is only calculated when n=2 or greater non-qualified results exist. Means are expressed as GeoMetric means with the standard error of the mean (SEM) and the number of replicates (n) indicated in parenthesis.

[2] = molecular target: T2, gastric inhibitory peptide receptor (GIPR) (Homo sapiens, UniProt P48546); experiment: cAMP pharmacological functional assay in presence of casein, hGIPR; assay type: cell-based; settings: HEK293 cells expressing hGIPR, 0.1% Casein, geometric mean; read-out: hGIPR cAMP Rel EC50 nM (SEM, n)
T2 sequence (P48546 22-466): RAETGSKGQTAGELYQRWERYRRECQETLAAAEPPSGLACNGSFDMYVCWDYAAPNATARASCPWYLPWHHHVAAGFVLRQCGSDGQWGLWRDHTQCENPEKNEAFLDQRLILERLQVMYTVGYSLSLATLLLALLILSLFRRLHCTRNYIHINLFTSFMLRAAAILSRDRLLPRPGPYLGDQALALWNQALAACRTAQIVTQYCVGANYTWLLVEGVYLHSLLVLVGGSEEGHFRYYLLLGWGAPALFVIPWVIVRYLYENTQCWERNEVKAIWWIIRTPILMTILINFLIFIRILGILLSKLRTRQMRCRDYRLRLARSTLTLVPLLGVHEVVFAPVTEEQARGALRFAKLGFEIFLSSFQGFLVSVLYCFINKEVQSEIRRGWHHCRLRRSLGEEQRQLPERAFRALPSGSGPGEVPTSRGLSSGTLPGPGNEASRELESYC

[3] = molecular target: T3, human GIP receptor (Homo sapiens, UniProt P48546); experiment: [125I]-GIP binding (SPA), human GIP receptor; settings: read-out: hGIPR Ki, nM (SEM, n)
T3 construct: expressed in transfected cells; crude membranes
T3 sequence (P48546 22-466): T2 sequence (P48546 22-466)
Method: as §1, §2, §3
The binding buffer contains 25 mM HEPES, pH 7.4, 2.5 mM CaCl2, 1 mM MgCl2, 0.1% (w/v) bacitracin, 0.003% (w/v) TWEEN©-20, and Roche Complete™ Protease Inhibitors without EDTA. Peptides and GIP are thawed and 3 fold serially diluted in 100% DMSO (10 point concentration response curves). […] Plates are sealed and mixed on a plate shaker (setting 6) for 1 minute and read with a PerkinElmer Trilux MicroBeta© scintillation counter after 2.5 to 12 hours of incubation/settling time at room temperature.
as §4

[4] = molecular target: human GLP-1R (Homo sapiens, UniProt P43220); experiment: [125I]-GLP-1 binding (SPA), human GLP-1 receptor; parameters: expressed in transfected cells; crude membranes; settings: read-out: hGLP1R Ki, (nM) (SEM, n)
Method: as §1, §2, §3
The binding buffer contains 25 mM HEPES, pH 7.4, 2.5 mM CaCl2, 1 mM MgCl2, 0.1% (w/v) bacitracin, 0.003% (w/v) TWEEN©-20, and Roche Complete™ Protease Inhibitors without EDTA.
as §4

[5] = molecular target: human GLP-1 receptor (GLP-1R) (Homo sapiens, UniProt P43220); experiment: cAMP pharmacological functional assay in presence of casein, hGLP-1R; assay type: cell-based; settings: HEK293 cells expressing hGLP-1R, 0.1% Casein, geometric mean; read-out: hGLP1R cAMP Rel EC50 nM (SEM, n)
Chain of human GLP-1 receptor (GLP-1R) (P43220 24-463): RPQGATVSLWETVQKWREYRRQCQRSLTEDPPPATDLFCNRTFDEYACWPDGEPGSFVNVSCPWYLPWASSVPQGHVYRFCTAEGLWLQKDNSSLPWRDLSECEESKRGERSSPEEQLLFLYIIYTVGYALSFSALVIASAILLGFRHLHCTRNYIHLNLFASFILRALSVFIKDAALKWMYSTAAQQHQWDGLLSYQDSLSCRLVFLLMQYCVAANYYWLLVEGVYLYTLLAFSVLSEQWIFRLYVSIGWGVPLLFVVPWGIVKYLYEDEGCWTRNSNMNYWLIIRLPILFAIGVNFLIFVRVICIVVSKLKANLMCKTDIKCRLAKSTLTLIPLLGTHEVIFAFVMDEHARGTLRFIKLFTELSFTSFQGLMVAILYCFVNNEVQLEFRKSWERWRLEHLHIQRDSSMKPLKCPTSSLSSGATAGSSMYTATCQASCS

Chain of human GLP-1R (P43220 24-463): as above
T1 sequence (P47871 26-477): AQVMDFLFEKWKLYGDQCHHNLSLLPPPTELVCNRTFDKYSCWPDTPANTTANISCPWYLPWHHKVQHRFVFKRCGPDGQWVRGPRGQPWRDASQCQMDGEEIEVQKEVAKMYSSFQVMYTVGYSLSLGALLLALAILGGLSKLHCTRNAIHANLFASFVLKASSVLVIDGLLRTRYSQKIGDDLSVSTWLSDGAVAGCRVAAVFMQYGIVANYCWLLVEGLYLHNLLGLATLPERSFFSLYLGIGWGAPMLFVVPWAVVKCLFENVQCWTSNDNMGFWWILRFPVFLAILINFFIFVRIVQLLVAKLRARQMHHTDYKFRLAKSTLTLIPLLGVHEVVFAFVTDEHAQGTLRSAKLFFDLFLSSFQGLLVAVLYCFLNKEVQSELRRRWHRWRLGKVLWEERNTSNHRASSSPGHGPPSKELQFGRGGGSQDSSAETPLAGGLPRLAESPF

| SMILES | Ki [1] [nM] | EC50 [2] [nM] | Ki [3] [nM] | Ki [4] [nM] | EC50 [5] [nM] |
| --- | --- | --- | --- | --- | --- |
| CC[C@H](C)[C@H](NC(=O)[C@H](Cc1ccccc1)NC(=O)[C@H](C)NC(=O)C(C)(C)NC(=O)[C@H](CCC(N)=O)NC(=O)[C@H](C)NC(=O)[C@H](CCCCNC(=O)COCCOCCNC(=O)COCCOCCNC(=O)CC[C@H](NC(=O)CCCCCCCCCCCCCCCCCCC(=O)O)C(=O)O)NC(=O)[C@H](CCCCN)NC(=O)[C@H](CC(=O)O)NC(=O)[C@H](CC(C)C)NC(=O)[C@H](CC(C)C)NC(=O)[C@@H](NC(=O)[C@H](CO)NC(=O)[C@H](Cc1ccc(O)cc1)NC(=O)[C@H](CC(=O)O)NC(=O)[C@H](CO)NC(=O)[C@@H](NC(=O)[C@H](Cc1ccccc1)NC(=O)[C@@H](NC(=O)CNC(=O)[C@H](CCC(=O)O)NC(=O)C(C)(C)NC(=O)[C@@H](N)Cc1ccc(O)cc1)[C@@H](C)O)[C@@H](C)O)[C@@H](C)CC)C(=O)N[C@@H](CCC(=O)O)C(=O)N[C@@H](Cc1ccc(O)cc1)C(=O)N[C@@H](CC(C)C)C(=O)N[C@@H](CC(C)C)C(=O)N[C@@H](CCC(=O)O)C(=O)NCC(=O)NCC(=O)N1CCC[C@H]1C(=O)N[C@@H](CO)C(=O)N[C@@H](CO)C(=O)NCC(=O)N[C@@H](C)C(=O)N1CCC[C@H]1C(=O)N1CCC[C@H]1C(=O)N1CCC[C@H]1C(=O)N[C@@H](CO)C(N)=O [Example 6] (H-Y[Aib]EGTFTSDYSILLDKK([AEEA-AEEA-γGlu-C20 diacid])AQ[Aib]AFIEYLLEGGPSSGAPPPS-NH2) | 55.8 | 0.0899 | 0.0835 | 6.71 | 0.374 |
| CC[C@H](C)[C@H](NC(=O)[C@H](Cc1ccccc1)NC(=O)[C@H](C)NC(=O)C(C)(C)NC(=O)[C@H](CCC(N)=O)NC(=O)[C@H](C)NC(=O)[C@H](CCCCNC(=O)COCCOCCNC(=O)COCCOCCNC(=O)CC[C@H](NC(=O)CCCCCCCCCCCCCCCCCCC(=O)O)C(=O)O)NC(=O)[C@H](CO)NC(=O)[C@H](CC(=O)O)NC(=O)[C@H](CC(C)C)NC(=O)[C@H](CC(C)C)NC(=O)[C@@H](NC(=O)[C@H](CO)NC(=O)[C@H](Cc1ccc(O)cc1)NC(=O)[C@H](CC(=O)O)NC(=O)[C@H](CO)NC(=O)[C@@H](NC(=O)[C@H](Cc1ccccc1)NC(=O)[C@@H](NC(=O)CNC(=O)[C@H](CCC(=O)O)NC(=O)C(C)(C)NC(=O)[C@@H](N)Cc1ccc(O)cc1)[C@@H](C)O)[C@@H](C)O)[C@@H](C)CC)C(=O)N[C@@H](CCC(=O)O)C(=O)N[C@@H](Cc1ccc(O)cc1)C(=O)N[C@@H](CC(C)C)C(=O)N[C@@H](CC(C)C)C(=O)N[C@@H](CCC(=O)O)C(=O)NCC(=O)NCC(=O)N1CCC[C@H]1C(=O)N[C@@H](CO)C(=O)N[C@@H](CO)C(=O)NCC(=O)N[C@@H](C)C(=O)N1CCC[C@H]1C(=O)N1CCC[C@H]1C(=O)N1CCC[C@H]1C(=O)N[C@@H](CO)C(N)=O [Example 7] (H-Y[Aib]EGTFTSDYSILLDSK([AEEA-AEEA-γGlu-C20 diacid])AQ[Aib]AFIEYLLEGGPSSGAPPPS-NH2) | 198 | 0.461 | 0.252 | 43.3 | 0.47 |
| CC[C@H](C)[C@H](NC(=O)[C@H](CC(C)C)NC(=O)[C@H](Cc1ccc(O)cc1)NC(=O)[C@H](CCC(=O)O)NC(=O)[C@@H](NC(=O)[C@H](Cc1ccccc1)NC(=O)[C@H](C)NC(=O)C(C)(C)NC(=O)[C@H](CCC(N)=O)NC(=O)[C@H](C)NC(=O)[C@H](CCCCNC(=O)COCCOCCNC(=O)COCCOCCNC(=O)CC[C@H](NC(=O)CCCCCCCCCCCCCCCCCCC(=O)O)C(=O)O)NC(=O)[C@H](CCCCN)NC(=O)[C@H](CC(=O)O)NC(=O)[C@H](CC(C)C)NC(=O)[C@H](CC(C)C)NC(=O)[C@@H](NC(=O)[C@H](CO)NC(=O)[C@H](Cc1ccc(O)cc1)NC(=O)[C@H](CC(=O)O)NC(=O)[C@H](CO)NC(=O)[C@@H](NC(=O)[C@H](Cc1ccccc1)NC(=O)[C@@H](NC(=O)CNC(=O)[C@H](CCC(=O)O)NC(=O)C(C)(C)NC(=O)[C@@H](N)Cc1ccc(O)cc1)[C@@H](C)O)[C@@H](C)O)[C@@H](C)CC)[C@@H](C)CC)C(=O)N[C@@H](CCC(=O)O)C(=O)NCC(=O)NCC(=O)N1CCC[C@H]1C(=O)N[C@@H](CO)C(=O)N[C@@H](CO)C(=O)NCC(=O)N[C@@H](C)C(=O)N1CCC[C@H]1C(=O)N1CCC[C@H]1C(=O)N1CCC[C@H]1C(=O)N[C@@H](CO)C(N)=O [Example 8] | 206 | 0.0848 | 0.0772 | 2.84 | 0.148 |
| CC[C@H](C)[C@H](NC(=O)[C@H](CC(C)C)NC(=O)[C@H](Cc1ccc(O)cc1)NC(=O)[C@H](CCC(=O)O)NC(=O)[C@@H](NC(=O)[C@H](Cc1ccccc1)NC(=O)[C@H](C)NC(=O)C(C)(C)NC(=O)[C@H](CCC(N)=O)NC(=O)[C@H](C)NC(=O)[C@H](CCCCNC(=O)COCCOCCNC(=O)COCCOCCNC(=O)CC[C@H](NC(=O)CCCCCCCCCCCCCCCCCCC(=O)O)C(=O)O)NC(=O)[C@H](CO)NC(=O)[C@H](CC(=O)O)NC(=O)[C@H](CC(C)C)NC(=O)[C@H](CC(C)C)NC(=O)[C@@H](NC(=O)[C@H](CO)NC(=O)[C@H](Cc1ccc(O)cc1)NC(=O)[C@H](CC(=O)O)NC(=O)[C@H](CO)NC(=O)[C@@H](NC(=O)[C@H](Cc1ccccc1)NC(=O)[C@@H](NC(=O)CNC(=O)[C@H](CCC(=O)O)NC(=O)C(C)(C)NC(=O)[C@@H](N)Cc1ccc(O)cc1)[C@@H](C)O)[C@@H](C)O)[C@@H](C)CC)[C@@H](C)CC)C(=O)N[C@@H](CCC(=O)O)C(=O)NCC(=O)NCC(=O)N1CCC[C@H]1C(=O)N[C@@H](CO)C(=O)N[C@@H](CO)C(=O)NCC(=O)N[C@@H](C)C(=O)N1CCC[C@H]1C(=O)N1CCC[C@H]1C(=O)N1CCC[C@H]1C(=O)N[C@@H](CO)C(N)=O [Example 9] (H-Y[Aib]EGTFTSDYSILLDSK([AEEA-AEEA-γGlu-C20 diacid])AQ[Aib]AFIEYLIEGGPSSGAPPPS-NH2) | 375 | 0.21 | 0.127 | 14.9 | 0.194 |
